Legend:
Type in all cases: in vivo
Settings in all cases: Site No. 1 (control site; g active/ha): Pre-emergent Glyphosate 450, Ammonium sulphate 1.12 kg/ha
[1] = test system: Wild Oat; assay: Example 6 field sites: visual % control of wild oat
Method: A study was conducted to test various application methods using flucarbazone-sodium (PREPARE) in a pre-emergent application followed by post-emergent application with clodinafop (DISCOVER® NG), pinoxaden (AXIAL™ XL) and flucarbazone-sodium (EVEREST®) for control of wild oat.
To better evaluate the ability of each treatment scheme in controlling unwanted vegetation in a planting site, a group of nearly identical crop planting sites (Site 1-Site 7) were subjected to different treatment schemes. Site No. 1 was to act as a control site and Site No. 2-Sites No. 7 were treated with a pre-emergent treatment or sequential pre-emergent and post-emergent treatment schemes. Treatment rates were based on the recommended rate provided on the product label (grams of active ingredient per hectare). Since the label provides a range, the rate applied is based on the lower recommended rate from the label range. […]
Site No. 1 was not treated with a pre-emergent or a post-emergent application of a herbicidally active compound according to embodiments of the present invention, allowing wild oat to emerge either with the crop or after crop emergence. […] Thus, percent control for wild oat was evaluated as the weed-free area in the particular site in comparison to the completely weed covered Site No. 1. […]

[2] = test system: Bromus secalinus; assay: Example 7 field sites: visual % control of Cheat (Bromus secalinus)
Method: (§1) Another study was conducted to test various application methods using flucarbazone-sodium (PREPARE) in a pre-emergent application followed by post-emergent application with propoxycarbazone (OLYMPUS®), pyroxsulam (Simplicity®), sulfosulfuron ([…]®), pinoxaden (AXIAL™ XL) and flucarbazone-sodium (EVEREST®) to control Bromus secalinus and Foxtail Barley.
(§2) To better evaluate the ability of each treatment scheme in controlling unwanted vegetation in a planting site, a group of nearly identical crop planting sites (Site 1-Site 10) were subjected to different treatment schemes. Again, Site No. 1 was a control site. Sites No. 2-Sites No. 10 were treated with either a pre-emergent treatment or sequential pre-emergent and post-emergent treatment schemes. Treatment rates were based on the recommended lower rate provided on the product label (grams of active ingredient per hectare). […]
(§3) Site No. 1 was not treated with a pre-emergent treatment or a post-emergent treatment, allowing Bromus secalinus and Foxtail Barley to emerge either with the crop or after crop emergence. […] Thus, percent control for Bromus secalinus and Foxtail Barley were evaluated as the weed-free area in the particular site in comparison to the completely weed covered Site No. 1. […]

[3] = test system: Foxtail Barley; assay: Example 7 field sites: visual % control of Foxtail Barley
Method: as §1, §2, §3

[4] = test system: Wild Oat; assay: Example 8 field sites: visual % control of Wild Oat
Method: as §1, with “(PrePare)” for “(PREPARE)”, “(SIMPLICITY®),” for “(Simplicity®),”, “Wild Oat.” for “Bromus secalinus and Foxtail Barley.”
as §2, with “schemes.” for “schemes. Again,”, “was again” for “was”, “site and sites” for “site. Sites”, “varying” for “either a pre-emergent treatment or sequential pre-emergent and post-emergent”, “Again, the treatment” for “Treatment”
Site No. 1 was not treated with a pre-emergent application or post-emergent application of herbicidally active compounds, allowing Wild Oat to emerge either with the crop or after crop emergence. […] Thus, percent control for Wild Oat was evaluated as the weed-free area in the particular site in comparison to the completely weed covered Site No. 1. Further, the respective crop yield for each crop planting site was also recorded. […]

[5] = test system: crop
Method: Site No. 1 was again a control site and sites No. 2-Sites No. 10 were treated with varying treatment schemes. […] In all sites, any pre-existing weeds that germinated and grew to cover the sites were removed with glyphosate to ensure a more accurate determination of the viability of each treatment scheme. For Site No. 2-Site No. 10, glyphosate was tank-mixed with PREPARE and applied to each site prior to the emergence of the desired crop.
The remaining sites were allowed the same amount of time for weed growth and were visually compared to crop planting site (Site No. 1). […] Further, the respective crop yield for each crop planting site was also recorded.
Ammonium sulphate is a commercially available fertilizer blend used as an adjuvant to improve performance of glyphosate.

## O=C(O)CNCP(=O)(O)O [Glyphosate, glyphosate]
[1]
  % Control of Wild Oat at 89 days after application: 0%
[2]
  % Control of Cheat (Bromus secalinus) at 86 days after application: 5%
[3]
  % Control of Foxtail Barley at 86 days after application: 0%
[4]
  % Control of Wild Oat at 86 days after application: 27%
[5]
  Crop Yield: 20.1 Bu./Acre

Reference: patent publication US20090203526A1, “METHOD OF CONTROLLING UNWANTED VEGETATION” (Arysta LifeScience North America, LLC, priority 2008, published 2009)
